According to US10487093B2, “Heterocyclic compounds, in particular 2-oxo-4,4,5,5,6,6,7,7-octahydrobenzoxazole derivatives, and their use as antibacterial compounds” (priority 2016, dated 2019):
In brackets after ≈: the same amount, converted by molar mass.

Assays:
[1] = system: Haemophilus influenzae ATCC 49247; assay: MIC, broth microdilution (CLSI) versus planktonic bacteria; assay type: cell-based; details: ATCC49247; Haemophilus influenzae ATCC 49247; 16-20 h; mode of three independent experiments; read-out: MIC, Hi ATCC 49247
[2] = system: human hepatic cell line (HepG2 ATCC HB-8065); assay: Human cell viability assay (CellTiter-Glo); details: Homo sapiens, HepG2, 24 h, read-out: IC50 (μg/mL) HepG2
[3] = system: Pseudomonas aeruginosa ATCC 27853; assay: MIC, broth microdilution (CLSI) versus planktonic bacteria; assay type: cell-based; details: ATCC27853; Pseudomonas aeruginosa ATCC 27853; 16-20 h; mode of three independent experiments; read-out: MIC, Pa ATCC 27853
[4] = system: Streptococcus pneumoniae ATCC 49619; assay: as above; assay type: cell-based; details: ATCC49619; Streptococcus pneumoniae ATCC 49619; 16-20 h; mode of three independent experiments; read-out: MIC, Sp ATCC 49619
[5] = system: Acinetobacter baumannii NCTC 13420; assay: as above; assay type: cell-based; details: NCTC13420; Acinetobacter baumannii NCTC 13420; 16-20 h; mode of three independent experiments; read-out: MIC, Ab NCTC 13420
[6] = system: Enterobacter cloacae NCTC 13406; assay: as above; assay type: cell-based; details: NCTC13406; Enterobacter cloacae NCTC 13406; 16-20 h; mode of three independent experiments; read-out: MIC, Ecl NCTC 13406
[7] = system: Staphylococcus aureus ATCC 29213; assay: as above; assay type: cell-based; details: ATCC29213; Staphylococcus aureus ATCC 29213; 16-20 h; mode of three independent experiments; read-out: MIC, Sa ATCC 29213
[8] = system: Escherichia coli ATCC 25922; assay: as above; assay type: cell-based; details: ATCC25922; Escherichia coli ATCC 25922; 16-20 h; mode of three independent experiments; read-out: MIC, Ec ATCC 25922

SMILES	MIC [1] [µg/mL]	IC50 [2] [µg/mL]	MIC [3] [µg/mL]	MIC [4] [µg/mL]	MIC [5] [µg/mL]	MIC [6] [µg/mL]	MIC [7] [µg/mL]	MIC [8] [µg/mL]
CN(C)CCOc1ccc2ccc(=O)n(CCN[C@@H]3CC[C@@H]4[C@@H](C3)OC(=O)N4c3ccc4c(n3)NC(=O)CO4)c2c1 [Compound 32, 1-(2-{[(3aR,6R,7aR)-2-oxo-3-{3-oxo-2H,3H,4H-pyrido[3,2-b][1,4]oxazin-6-yl}-octahydro-1,3-benzoxazol-6-yl]amino}ethyl)-7-[2-(dimethylamino)ethoxy]-1,2-dihydroquinolin-2-one]	10 to 100 (≈ 17.8 to 178 µM)	> 100	1 to 10 (≈ 1.78 to 17.8 µM)	1 to 10 (≈ 1.78 to 17.8 µM)	> 100	10 to 100 (≈ 17.8 to 178 µM)	1 to 10 (≈ 1.78 to 17.8 µM)	1 to 10 (≈ 1.78 to 17.8 µM)
O=C1COc2ccc(N3C(=O)O[C@@H]4C[C@@H](NCCn5c(=O)cnc6ccc(F)cc65)CC[C@@H]43)nc2N1 [Compound 26, 1-(2-{[(3aS,6S,7aR)-2-oxo-3-{3-oxo-2H,3H,4H-pyrido[3,2-b][1,4]oxazin-6-yl}-octahydro-1,3-benzoxazol-6-yl]amino}ethyl)-7-fluoro-1,2-dihydroquinoxalin-2-one]	< 1	> 100	1 to 10 (≈ 2.02 to 20.2 µM)	< 1	< 1	1 to 10 (≈ 2.02 to 20.2 µM)	< 1	< 1
COc1ccc2ccc(=O)n(CCN[C@H]3CC[C@H]4[C@@H](C3)OC(=O)N4c3ncc4c(n3)NC(=O)CO4)c2n1 [Compound 16]	< 1	> 100	1 to 10 (≈ 1.97 to 19.7 µM)	< 1	1 to 10 (≈ 1.97 to 19.7 µM)	1 to 10 (≈ 1.97 to 19.7 µM)	< 1	< 1
O=C1COc2cnc(N3C(=O)O[C@H]4C[C@@H](NCCn5c(=O)cnc6cc(F)c(F)cc65)CC[C@@H]43)nc2N1 [Compound 66, 1-(2-{[(3aS,6S,7aS)-2-oxo-3-{7-oxo-6H,7H,8H-pyrimido[5,4-b][1,4]oxazin-2-yl}-octahydro-1,3-benzoxazol-6-yl]amino}ethyl)-6,7-difluoro-1,2-dihydroquinoxalin-2-one]	1 to 10 (≈ 1.95 to 19.5 µM)	> 100	> 100	< 1	1 to 10 (≈ 1.95 to 19.5 µM)	10 to 100 (≈ 19.5 to 195 µM)	< 1	1 to 10 (≈ 1.95 to 19.5 µM)
N#Cc1ccc2ccc(=O)n(CCN(CCN)[C@@H]3CC[C@@H]4[C@@H](C3)OC(=O)N4c3ccc4c(n3)NC(=O)CO4)c2c1 [Compound 19, 1-(2-{[(3aR,6R,7aR)-2-oxo-3-{3-oxo-2H,3H,4H-pyrido[3,2-b][1,4]oxazin-6-yl}-octahydro-1,3-benzoxazol-6-yl](2-aminoethyl)amino}ethyl)-2-oxo-1,2-dihydroquinoline-7-carbonitrile]	10 to 100 (≈ 18.4 to 184 µM)	> 100	10 to 100 (≈ 18.4 to 184 µM)	> 100	10 to 100 (≈ 18.4 to 184 µM)	> 100	< 1	10 to 100 (≈ 18.4 to 184 µM)
COc1cnc2ccc(=O)n(CCN(C)[C@H]3CC[C@H]4[C@@H](C3)OC(=O)N4c3ccc4c(n3)NC(=O)CO4)c2c1 [Compound 51, 1-(2-{[(3aS,6S,7aR)-2-oxo-3-{3-oxo-2H,3H,4H-pyrido[3,2-b][1,4]oxazin-6-yl}-octahydro-1,3-benzoxazol-6-yl](methyl)amino}ethyl)-7-methoxy-1,2-dihydro-1,5-naphthyridin-2-one]	< 1	> 100	1 to 10 (≈ 1.92 to 19.2 µM)	< 1	1 to 10 (≈ 1.92 to 19.2 µM)	1 to 10 (≈ 1.92 to 19.2 µM)	< 1	1 to 10 (≈ 1.92 to 19.2 µM)
CN(CCn1c(=O)ccc2ccc(OCCN)cc21)[C@@H]1CC[C@@H]2[C@@H](C1)OC(=O)N2c1ccc2c(n1)NC(=O)CO2 [Compound 54]	1 to 10 (≈ 1.82 to 18.2 µM)	> 100	1 to 10 (≈ 1.82 to 18.2 µM)	< 1	1 to 10 (≈ 1.82 to 18.2 µM)	1 to 10 (≈ 1.82 to 18.2 µM)	< 1	< 1
N#Cc1cnc2ccc(=O)n(CCN[C@@H]3CC[C@@H]4[C@@H](C3)OC(=O)N4c3ccc4c(n3)NC(=O)CO4)c2c1 [Compound 50, 5-(2-{[(3aR,6R,7aR)-2-oxo-3-{3-oxo-2H,3H,4H-pyrido[3,2-b][1,4]oxazin-6-yl}-octahydro-1,3-benzoxazol-6-yl]amino}ethyl)-6-oxo-5,6-dihydro-1,5-naphthyridine-3-carbonitrile]	< 1	> 100	< 1	< 1	1 to 10 (≈ 1.99 to 19.9 µM)	1 to 10 (≈ 1.99 to 19.9 µM)	< 1	< 1
O=C1COc2ccc(N3C(=O)O[C@@H]4C[C@H](NCCn5c(=O)ccc6ccc(O)cc65)CC[C@H]43)nc2N1 [Compound 20, 1-(2-{[(3aR,6R,7aR)-2-oxo-3-{3-oxo-2H,3H,4H-pyrido[3,2-b][1,4]oxazin-6-yl}-octahydro-1,3-benzoxazol-6-yl]amino}ethyl)-7-hydroxy-1,2-dihydroquinolin-2-one]	< 1	> 100	1 to 10 (≈ 2.03 to 20.3 µM)	10 to 100 (≈ 20.3 to 203 µM)	10 to 100 (≈ 20.3 to 203 µM)	1 to 10 (≈ 2.03 to 20.3 µM)	< 1	< 1
COc1ccc2ccc(=O)n(CCN[C@H]3CC[C@H]4[C@H](C3)OC(=O)N4c3ccc4c(n3)NC(=O)C(C)(C)O4)c2n1 [Compound 48, 1-(2-{[(3aS,6S,7aS)-3-{2,2-dimethyl-3-oxo-2H,3H,4H-pyrido[3,2-b][1,4]oxazin-6-yl}-2-oxo-octahydro-1,3-benzoxazol-6-yl]amino}ethyl)-7-methoxy-1,2-dihydro-1,8-naphthyridin-2-one]	1 to 10 (≈ 1.87 to 18.7 µM)	> 100	10 to 100 (≈ 18.7 to 187 µM)	< 1	< 1	10 to 100 (≈ 18.7 to 187 µM)	< 1	1 to 10 (≈ 1.87 to 18.7 µM)
COc1ccc2ccc(=O)n(CCN[C@@H]3CC[C@@H]4[C@@H](C3)OC(=O)N4c3cc4c(nn3)OCCO4)c2n1 [Compound 49, 1-(2-{[(3aR,6R,7aR)-3-{6H,7H-[1,4]dioxino[2,3-c]pyridazin-3-yl}-2-oxo-octahydro-1,3-benzoxazol-6-yl]amino}ethyl)-7-methoxy-1,2-dihydro-1,8-naphthyridin-2-one]	10 to 100 (≈ 20.2 to 202 µM)	> 100	10 to 100 (≈ 20.2 to 202 µM)	< 1	10 to 100 (≈ 20.2 to 202 µM)	> 100	< 1	10 to 100 (≈ 20.2 to 202 µM)
O=C1COc2cnc(N3C(=O)O[C@@H]4C[C@@H](NCCn5c(=O)cnc6cc(F)c(F)cc65)CC[C@@H]43)nc2N1 [Compound 65, 1-(2-{[(3aS,6S,7aR)-2-oxo-3-{7-oxo-6H,7H,8H-pyrimido[5,4-b][1,4]oxazin-2-yl}-octahydro-1,3-benzoxazol-6-yl]amino}ethyl)-6,7-difluoro-1,2-dihydroquinoxalin-2-one]	1 to 10 (≈ 1.95 to 19.5 µM)	> 100	10 to 100 (≈ 19.5 to 195 µM)	< 1	10 to 100 (≈ 19.5 to 195 µM)	1 to 10 (≈ 1.95 to 19.5 µM)	< 1	1 to 10 (≈ 1.95 to 19.5 µM)
Cn1ccc(-c2ccc3ccc(=O)n(CCN[C@H]4CC[C@H]5[C@H](C4)OC(=O)N5c4ccc5c(n4)NC(=O)CO5)c3c2)n1 [Compound 104, 1-(2-{[(3aS,6S,7aS)-2-oxo-3-{3-oxo-2H,3H,4H-pyrido[3,2-b][1,4]oxazin-6-yl}-octahydro-1,3-benzoxazol-6-yl]amino}ethyl)-7-(1-methyl-1H-pyrazol-3-yl)-1,2-dihydroquinolin-2-one]	< 1	10 to 100 (≈ 18 to 180 µM)	10 to 100 (≈ 18 to 180 µM)	< 1	< 1	1 to 10 (≈ 1.8 to 18 µM)	< 1	1 to 10 (≈ 1.8 to 18 µM)
